Reference: PubChem BioAssay AID276 (DTP/NCI, 2004)
Several values for one entry are separate records, joined by “and”; a condition that tells them apart may be missing. Identical values can stand only once. Inconclusive results and toxic doses are left out. How the source made its calls: active means survival T/C of 150% or more; inactive means T/C below 125% in these data.

Test system: B6C3F1 mice, Lewis lung carcinoma iv, survival T/C
Experiment: NCI In Vivo Anticancer Drug Screen. Data for tumor model Lewis Lung Carcinoma (intravenous) in B6C3F1 mice
Conditions: endpoint: median survival time, schedule: Q01DX009 (ip), higher = longer survival
Method in brief: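 Transplantable tumor in mice; compound treated vs vehicle controls; read-out survival; value = treated/control (T/C).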

[1] = dose: 25.0 mg/kg/injection, vehicle: saline with Tween-80
[2] = dose: 50.0 mg/kg/injection, vehicle: saline with Tween-80
[3] = dose: 100.0 mg/kg/injection, vehicle: saline with Tween-80
[4] = dose: 3.12 mg/kg/injection, vehicle: saline with Tween-80
[5] = dose: 6.25 mg/kg/injection, vehicle: saline with Tween-80
[6] = dose: 12.5 mg/kg/injection, vehicle: saline
[7] = dose: 25.0 mg/kg/injection, vehicle: saline
[8] = dose: 12.5 mg/kg/injection, vehicle: saline with Tween-80
[9] = dose: 3.12 mg/kg/injection, vehicle: water
[10] = dose: 6.25 mg/kg/injection, vehicle: water
[11] = dose: 12.5 mg/kg/injection, vehicle: water
[12] = dose: 25.0 mg/kg/injection, vehicle: water
[13] = dose: 6.25 mg/kg/injection, vehicle: Klucel (hydroxypropylcellulose) (HPC)
[14] = dose: 12.5 mg/kg/injection, vehicle: Klucel (hydroxypropylcellulose) (HPC)
[15] = dose: 25.0 mg/kg/injection, vehicle: Klucel (hydroxypropylcellulose) (HPC)
[16] = dose: 50.0 mg/kg/injection, vehicle: Klucel (hydroxypropylcellulose) (HPC)
[17] = dose: 100.0 mg/kg/injection, vehicle: Klucel (hydroxypropylcellulose) (HPC)
[18] = dose: 16.0 mg/kg/injection, vehicle: saline with Tween-80
[19] = dose: 32.0 mg/kg/injection, vehicle: saline with Tween-80
[20] = dose: 200.0 mg/kg/injection, vehicle: Klucel (hydroxypropylcellulose) (HPC)
[21] = dose: 400.0 mg/kg/injection, vehicle: Klucel (hydroxypropylcellulose) (HPC)

Measured: T/C

O=C(Nc1cccc(Cl)c1)ON1C(=O)C2C(C1=O)C1(Cl)C(Cl)C(Cl)C2(Cl)C1(Cl)Cl (stereo not drawn)
inactive: [1] 95 % of control | [2] 97 % of control | [3] 87 % of control

Nc1nc(N)c2c(ccc3c2ccn3Cc2cccc([N+](=O)[O-])c2)n1
inactive: dose: 1.56 mg/kg/injection, vehicle: saline with Tween-80 98 % of control | [4] 102 % of control | [5] 103 % of control

Cc1ccc2c(ccc(/C=C/c3ccc(O)c4ncccc34)[n+]2C)c1
inactive: [6] 100 % of control | [7] 86 % of control

C/C=C/C=C1/OC(C)=C(C(C)=O)C1=O
inactive: [8] 123 % of control | [1] 108 % of control | [2] 93 % of control | [3] 103 % of control

COc1cc(NCc2ccc3nc(N)nc(N)c3c2C)cc(OC)c1OC
inactive: [9] 94 % of control | [10] 102 % of control | [11] 97 % of control and 124 % of control | [12] 101 % of control and 111 % of control | dose: 50.0 mg/kg/injection, vehicle: water 113 % of control and 117 % of control

Cc1nc(N)nc(N)c1-c1ccc(Cl)c(Cl)c1
inactive: dose: 0.32 mg/kg/injection, vehicle: saline 97 % of control | dose: 0.63 mg/kg/injection, vehicle: saline 109 % of control | dose: 1.25 mg/kg/injection, vehicle: saline 120 % of control | dose: 2.5 mg/kg/injection, vehicle: saline 113 % of control | dose: 5.0 mg/kg/injection, vehicle: saline 124 % of control | dose: 10.0 mg/kg/injection, vehicle: saline 112 % of control

COc1ccc2[nH]c3c(c2c1)CCNC3CC(C)CCC=C(C)C (stereo not drawn)
inactive: [13] 98 % of control | [14] 98 % of control | [15] 92 % of control | [16] 103 % of control | [17] 105 % of control

C=C1C(=O)OCC1(C(=O)OCC)C(=O)OCC
inactive: dose: 4.0 mg/kg/injection, vehicle: saline with Tween-80 95 % of control | dose: 8.0 mg/kg/injection, vehicle: saline with Tween-80 103 % of control | [18] 105 % of control | [19] 96 % of control

N=C1CCCS1
inactive: [7] 117 % of control | dose: 50.0 mg/kg/injection, vehicle: saline 122 % of control

CC1=NNC(=O)C1CCO (stereo not drawn)
inactive: [13] 104 % of control | [14] 96 % of control | [15] 108 % of control | [16] 92 % of control and 99 % of control | [20] 98 % of control and 108 % of control | [21] 112 % of control

Oc1c(Cl)cc(Cl)cc1C1N2CCCCC2C2c3cccn3-c3ccccc3N21 (stereo not drawn)
inactive: [14] 106 % of control | [15] 101 % of control | [16] 104 % of control | [17] 95 % of control | [20] 102 % of control

CNC(=O)n1c(N)nc(-c2ccccc2)c1-c1ccccc1
inactive: [5] 102 % of control | [8] 103 % of control | [1] 103 % of control | [2] 102 % of control

CCCCCNc1ncnc2c(C)[nH]nc12
inactive: [15] 103 % of control | [16] 94 % of control | [17] 108 % of control

Cc1[nH]ccc(=O)c1O
inactive: [18] 87 % of control | [19] 95 % of control | dose: 64.0 mg/kg/injection, vehicle: saline with Tween-80 101 % of control | dose: 128.0 mg/kg/injection, vehicle: saline with Tween-80 108 % of control | dose: 256.0 mg/kg/injection, vehicle: saline with Tween-80 99 % of control

O=C(CN1CCOCC1)Nc1nc(-c2ccc(Cl)cc2)cs1
inactive: dose: 50.0 mg/kg/injection, vehicle: DMSO 91 % of control | dose: 100.0 mg/kg/injection, vehicle: DMSO 92 % of control | dose: 200.0 mg/kg/injection, vehicle: DMSO 103 % of control | dose: 400.0 mg/kg/injection, vehicle: DMSO 100 % of control | dose: 800.0 mg/kg/injection, vehicle: DMSO 95 % of control

CN(C)N=Nc1cccc(C(N)=O)c1
inactive: dose: 10.0 mg/kg/injection, vehicle: Klucel (hydroxypropylcellulose) (HPC) 114 % of control | dose: 20.0 mg/kg/injection, vehicle: Klucel (hydroxypropylcellulose) (HPC) 115 % of control

Cc1ccc(S(=O)(=O)OCOS(=O)(=O)c2ccc(C)cc2)cc1
inactive: [16] 107 % of control | [17] 103 % of control | [20] 108 % of control | [21] 117 % of control

Cc1cc(NCCCCCCNc2cc(C)nc3cc(N(C)C)ccc23)c2ccc(N(C)C)cc2n1
inactive: dose: 3.12 mg/kg/injection, vehicle: distilled water + Tween-80 + alcohol 98 % of control | dose: 6.25 mg/kg/injection, vehicle: distilled water + Tween-80 + alcohol 100 % of control | dose: 12.5 mg/kg/injection, vehicle: distilled water + Tween-80 + alcohol 93 % of control | dose: 25.0 mg/kg/injection, vehicle: distilled water + Tween-80 + alcohol 102 % of control

O=[N+]([O-])c1c(O)c(CNCCCO)cc(CNCCCO)c1O
inactive: dose: 6.25 mg/kg/injection, vehicle: saline 100 % of control | [6] 113 % of control | [7] 102 % of control

O=C(CCCCCCC(=O)ON1C(=O)CCC1=O)ON1C(=O)CCC1=O
inactive: [1] 94 % of control | [2] 94 % of control | [3] 93 % of control

c1ccc2sc(SSN3CC4CCC(CC4)C3)nc2c1
inactive: [8] 100 % of control | [1] 93 % of control | [2] 90 % of control | [3] 91 % of control | dose: 200.0 mg/kg/injection, vehicle: saline with Tween-80 106 % of control

Cc1cc2nc3c(=O)[nH]c(=O)nc-3n(CC(O)C(O)C(O)C(O)CO)c2cc1C (stereo not drawn)
inactive: dose: 25.0 mg/kg/injection, vehicle: suspension in saline 95 % of control | dose: 50.0 mg/kg/injection, vehicle: suspension in saline 110 % of control | dose: 100.0 mg/kg/injection, vehicle: suspension in saline 111 % of control | dose: 200.0 mg/kg/injection, vehicle: suspension in saline 115 % of control

COc1ccc(-c2csc(=[N+]3CCCCC3)s2)cc1
inactive: dose: 1.56 mg/kg/injection, vehicle: water 108 % of control | [9] 104 % of control | [10] 104 % of control | [11] 94 % of control | [12] 95 % of control

C#CCNC1=C(C)C(=O)C2=C(C1=O)[C@H](COC(N)=O)[C@]1(OC)[C@@H]3N[C@@H]3CN21
inactive: dose: 6.25 mg/kg/injection, vehicle: distilled water + Tween-80 102 % of control

COC(=O)Nc1nc2ccc(SC)cc2c(=O)[nH]1
inactive: [15] 99 % of control | [16] 110 % of control | [17] 100 % of control | [20] 110 % of control

COC1CC(C)C(OC)c2cc(O)cc(c2O)NC(=O)/C(C)=C/C=C\C(C)C(OC(N)=O)/C(C)=C\C(C)C1OC (stereo not drawn)
inactive: dose: 5.0 mg/kg/injection, vehicle: saline + alcohol 115 % of control | dose: 10.0 mg/kg/injection, vehicle: saline + alcohol 88 % of control

CCCCCC[Se][Se]CCCCCC
inactive: dose: 1.56 mg/kg/injection, vehicle: Klucel (hydroxypropylcellulose) (HPC) 97 % of control | dose: 3.12 mg/kg/injection, vehicle: Klucel (hydroxypropylcellulose) (HPC) 105 % of control | [13] 100 % of control | [14] 95 % of control

C=C1N(C)c2ccccc2C1(C)C
inactive: [4] 107 % of control | [5] 102 % of control | [8] 109 % of control | [1] 98 % of control | [2] 110 % of control
